From US20230218710A1, “METHOD OF TREATING CORONAVIRUS INFECTIONS” (priority 2020, published 2023)
Marks after values point to notes of the source that are not given here.

Columns and labels:
[1] = system: LPS-induced acute lung injury mouse model; assay: LPS-induced acute lung injury model in mouse (Example 8); type: in vivo, mice; settings: HCl salts; for Pro-inflammatory Cytokine Level IFNγ / Pro-inflammatory Cytokine Level IL-1β / Pro-inflammatory Cytokine Level IL-2 / Pro-inflammatory Cytokine Level IL-4 / Pro-inflammatory Cytokine Level IL-5 / Pro-inflammatory Cytokine Level IL-6 / Pro-inflammatory Cytokine Level IL-9 / Pro-inflammatory Cytokine Level IL-10 / Pro-inflammatory Cytokine Level IL-12p70 / Pro-inflammatory Cytokine Level IL-17A / Pro-inflammatory Cytokine Level IL-17A/F / Pro-inflammatory Cytokine Level IL-17C / Pro-inflammatory Cytokine Level IL-17E/IL-25 / Pro-inflammatory Cytokine Level IL-23 / Pro-inflammatory Cytokine Level IL-27p28/IL-30 / Pro-inflammatory Cytokine Level IL-31 / Pro-inflammatory Cytokine Level IP-10 / Pro-inflammatory Cytokine Level KC/GRO / Pro-inflammatory Cytokine Level MCP-1 / Pro-inflammatory Cytokine Level MIP-1α / Pro-inflammatory Cytokine Level MIP-2 / Pro-inflammatory Cytokine Level MIP-3α / Pro-inflammatory Cytokine Level TNFα: BALF; for Mean (SEM) Alveolar Neutrophil Infiltration Score / Mean (SEM) Interstitial Neutrophil Infiltration Score / Mean (SEM) Composite Lung Injury Score: histopathology; for Mean (SEM) Alveolar Neutrophil Infiltration Score / Mean (SEM) Interstitial Neutrophil Infiltration Score: 0-5 scale
Method: The effect of the peptides of the current invention on acute lung injury can be assessed in an LPS-induced acute lung injury mouse model by monitoring outcomes such as lung weight, fluid accumulation, cytokine secretion in blood or bronchoalveolar lavage fluid (BALF), neutrophil infiltration into lung tissues, and assessment of acute lung injury score by histopathology. Acute lung injury was induced in male C57BL/6 mice (6 to 8 weeks old) by intratracheal administration of 40 μL lipopolysaccharide (LPS) (Sigma Aldrich, St. Louis, Mo.) in PBS at 5 mg/kg. Control animals received intratracheal PBS alone. Animals (n=8 per treatment group) induced with LPS received intraperitoneal treatment with: PBS (vehicle control) or test peptides at 5 or 15 mg/kg in water. Treatments were administered 1 h prior to LPS for animals designated for termination at 4 h after LPS, or at both 1 h prior to and 6 h after LPS for animals designated for termination at 24 h after LPS. At 4 or 24 hours post-LPS administration, tissues were harvested. Lungs were weighed and flushed with Hanks Buffer to provide bronchoalveolar lavage fluid (BALF). Lungs collected at 24 h were fixed in 10% neutral buffered formalin (NBF) for histopathology. Tissue slides were stained with hematoxylin and eosin (H&E) and evaluated and scored with light microscopy of 5 representative microscopic fields (100× magnification) scoring on a 0-5 scale using standard methods (Matute-Bello G et al 2011. An Official American Thoracic Society Workshop Report: Features and Measurements of Experimental Acute Lung Injury in Animals. Am J Respir Cell Mol Biol 44:725-38). The average score for five fields was calculated for each animal. Levels of pro-inflammatory cytokines in BALF at 4 h were determined using a meso scale discovery (MSD) system. Data for test peptides were compared to the vehicle control group. Table 13 compares the lung weights following LPS induction and treatment with PBS (vehicle control), or peptides. Table 14 compares the levels of pro-inflammatory cytokines in BALF following LPS induction and treatment with PBS (vehicle control) or peptides. Table 15 compares the histopathology scores for infiltration of neutrophils into alveoli and interstitial lung tissue and the composite lung injury score following LPS induction and treatment with PBS (vehicle control) or peptides.

[2] = target: T1, Apelin Receptor (APJ) (Homo sapiens, UniProt P35414); assay: Phosphorylation of MEK1 in cultured cells overexpressing APJ; type: cell-based; settings: 5 min, 100 nM Pyr-Apelin-13 = positive control, acetate salts
T1 construct: host or cells: CHO-K1 AGTRL1 Gi cells
T1 sequence (P35414 1-380): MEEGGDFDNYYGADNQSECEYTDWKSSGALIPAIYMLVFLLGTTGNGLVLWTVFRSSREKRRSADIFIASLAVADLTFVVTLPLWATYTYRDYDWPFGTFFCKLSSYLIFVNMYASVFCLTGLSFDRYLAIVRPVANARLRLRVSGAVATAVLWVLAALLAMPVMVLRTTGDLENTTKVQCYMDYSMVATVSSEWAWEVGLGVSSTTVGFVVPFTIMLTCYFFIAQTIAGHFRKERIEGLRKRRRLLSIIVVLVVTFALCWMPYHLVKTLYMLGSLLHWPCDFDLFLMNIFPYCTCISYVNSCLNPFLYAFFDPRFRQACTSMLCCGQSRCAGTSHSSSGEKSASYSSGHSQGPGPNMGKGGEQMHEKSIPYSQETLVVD
Method: Peptides were initially prepared as 100× stocks in H2O. […] Following a 5 min incubation, the supernatant was removed and the cells were placed on ice and washed twice with cold HBSS. The HBSS was removed and the cells were immediately lysed in 300 μl/well of 1× lysis buffer (CST 10× Lysis Buffer; Cell Signaling Technology; Danvers, Mass.); lysis buffer was supplemented with 1 mM PMSF (Millipore-Sigma; Saint Louis, Mo.) and Halt Protease/Phosphatase Inhibitor Cocktail (Thermo-Fisher; Waltham, Mass.) prior to use. The samples were then placed on ice for 10 min, the wells were scraped and lysates were centrifuged at 12,500 rpm for 10 min at 4° C., and p-MEK expression in each sample was measured using Phospho-MEK1 (Ser217/221) Sandwich ELISA kit according to manufacturer's instructions (Cell Signaling Technology; Danvers, Mass.). Absorbance was measured using a Cytation 3 plate reader at […] (BioTek; Winooski, Vt.). […] Each data point represents the average of duplicate assays.

(PEG12)KRRLLGLVFQSLCG(dA) (KRRLLGLVFQSLCGA; N-terminal PEG12; C-terminal D-alanine; (1)..(1) PEG12; (15)..(15) D-Ala) [SEQ ID NO: 37]
Mean (SEM) Lung Weight ([1]; 4 h after LPS, 5 mg/kg i.p.): 0.279 (0.006) g
Mean (SEM) Lung Weight ([1]; 4 h after LPS, 15 mg/kg i.p.): 0.280 (0.005) g
Mean (SEM) Lung Weight ([1]; 24 h after LPS, 5 mg/kg i.p.): 0.286 (0.008)* g
Mean (SEM) Lung Weight ([1]; 24 h after LPS, 15 mg/kg i.p.): 0.284 (0.007)* g
Pro-inflammatory Cytokine Level IFNγ ([1]; 4 h after LPS, 5 mg/kg i.p.): 0.37 (0.07) pg/mL
Pro-inflammatory Cytokine Level IL-1β ([1]; 4 h after LPS, 5 mg/kg i.p.): 68.3 (12.6) pg/mL
Pro-inflammatory Cytokine Level IL-2 ([1]; 4 h after LPS, 5 mg/kg i.p.): 2.83 (0.45) pg/mL
Pro-inflammatory Cytokine Level IL-4 ([1]; 4 h after LPS, 5 mg/kg i.p.): 1.63 (0.37) pg/mL
Pro-inflammatory Cytokine Level IL-5 ([1]; 4 h after LPS, 5 mg/kg i.p.): 8.14 (1.35) pg/mL
Pro-inflammatory Cytokine Level IL-6 ([1]; 4 h after LPS, 5 mg/kg i.p.): 9380 (1380) pg/mL
Pro-inflammatory Cytokine Level IL-9 ([1]; 4 h after LPS, 5 mg/kg i.p.): 7.84 (0.67) pg/mL
Pro-inflammatory Cytokine Level IL-10 ([1]; 4 h after LPS, 5 mg/kg i.p.): 32.2 (5.31) pg/mL
Pro-inflammatory Cytokine Level IL-12p70 ([1]; 4 h after LPS, 5 mg/kg i.p.): 65.2 (15.9) pg/mL
Pro-inflammatory Cytokine Level IL-17A ([1]; 4 h after LPS, 5 mg/kg i.p.): 2.22 (0.741) pg/mL
Pro-inflammatory Cytokine Level IL-17A/F ([1]; 4 h after LPS, 5 mg/kg i.p.): 7.45 (2.46) pg/mL
Pro-inflammatory Cytokine Level IL-17C ([1]; 4 h after LPS, 5 mg/kg i.p.): 0.66 (0.04) pg/mL
Pro-inflammatory Cytokine Level IL-17E/IL-25 ([1]; 4 h after LPS, 5 mg/kg i.p.): 0.18 (0.10) pg/mL
Pro-inflammatory Cytokine Level IL-23 ([1]; 4 h after LPS, 5 mg/kg i.p.): 0.08 (0.07) pg/mL
Pro-inflammatory Cytokine Level IL-27p28/IL-30 ([1]; 4 h after LPS, 5 mg/kg i.p.): 13.7 (2.44) pg/mL
Pro-inflammatory Cytokine Level IL-31 ([1]; 4 h after LPS, 5 mg/kg i.p.): 0.00 (0.00) pg/mL
Pro-inflammatory Cytokine Level IP-10 ([1]; 4 h after LPS, 5 mg/kg i.p.): 2290 (341) pg/mL
Pro-inflammatory Cytokine Level KC/GRO ([1]; 4 h after LPS, 5 mg/kg i.p.): 3120 (196) pg/mL
Pro-inflammatory Cytokine Level MCP-1 ([1]; 4 h after LPS, 5 mg/kg i.p.): 1310 (225) pg/mL
Pro-inflammatory Cytokine Level MIP-1α ([1]; 4 h after LPS, 5 mg/kg i.p.): 5660 (50.6) pg/mL
Pro-inflammatory Cytokine Level MIP-2 ([1]; 4 h after LPS, 5 mg/kg i.p.): 3230 (25.1) pg/mL
Pro-inflammatory Cytokine Level MIP-3α ([1]; 4 h after LPS, 5 mg/kg i.p.): 983 (75.1) pg/mL
Pro-inflammatory Cytokine Level TNFα ([1]; 4 h after LPS, 5 mg/kg i.p.): 4070 (518) pg/mL
Pro-inflammatory Cytokine Level IFNγ ([1]; 4 h after LPS, 15 mg/kg i.p.): 0.42 (0.10) pg/mL
Pro-inflammatory Cytokine Level IL-1β ([1]; 4 h after LPS, 15 mg/kg i.p.): 91.5 (20.0) pg/mL
Pro-inflammatory Cytokine Level IL-2 ([1]; 4 h after LPS, 15 mg/kg i.p.): 3.36 (0.55) pg/mL
Pro-inflammatory Cytokine Level IL-4 ([1]; 4 h after LPS, 15 mg/kg i.p.): 1.75 (0.28) pg/mL
Pro-inflammatory Cytokine Level IL-5 ([1]; 4 h after LPS, 15 mg/kg i.p.): 13.2 (2.05) pg/mL
Pro-inflammatory Cytokine Level IL-6 ([1]; 4 h after LPS, 15 mg/kg i.p.): 11600 (1360) pg/mL
Pro-inflammatory Cytokine Level IL-9 ([1]; 4 h after LPS, 15 mg/kg i.p.): 7.89 (1.31) pg/mL
Pro-inflammatory Cytokine Level IL-10 ([1]; 4 h after LPS, 15 mg/kg i.p.): 31.5 (3.76) pg/mL
Pro-inflammatory Cytokine Level IL-12p70 ([1]; 4 h after LPS, 15 mg/kg i.p.): 80.0 (21.8) pg/mL
Pro-inflammatory Cytokine Level IL-17A ([1]; 4 h after LPS, 15 mg/kg i.p.): 2.82 (0.639) pg/mL
Pro-inflammatory Cytokine Level IL-17A/F ([1]; 4 h after LPS, 15 mg/kg i.p.): 4.48 (0.59) pg/mL
Pro-inflammatory Cytokine Level IL-17C ([1]; 4 h after LPS, 15 mg/kg i.p.): 0.69 (0.13) pg/mL
Pro-inflammatory Cytokine Level IL-17E/IL-25 ([1]; 4 h after LPS, 15 mg/kg i.p.): 0.44 (0.29) pg/mL
Pro-inflammatory Cytokine Level IL-23 ([1]; 4 h after LPS, 15 mg/kg i.p.): 0.06 (0.05) pg/mL
Pro-inflammatory Cytokine Level IL-27p28/IL-30 ([1]; 4 h after LPS, 15 mg/kg i.p.): 15.5 (2.42) pg/mL
Pro-inflammatory Cytokine Level IL-31 ([1]; 4 h after LPS, 15 mg/kg i.p.): 0.00 (0.00) pg/mL
Pro-inflammatory Cytokine Level IP-10 ([1]; 4 h after LPS, 15 mg/kg i.p.): 3020 (547) pg/mL
Pro-inflammatory Cytokine Level KC/GRO ([1]; 4 h after LPS, 15 mg/kg i.p.): 3260 (142) pg/mL
Pro-inflammatory Cytokine Level MCP-1 ([1]; 4 h after LPS, 15 mg/kg i.p.): 1590 (178) pg/mL
Pro-inflammatory Cytokine Level MIP-1α ([1]; 4 h after LPS, 15 mg/kg i.p.): 5490 (35.1) pg/mL
Pro-inflammatory Cytokine Level MIP-2 ([1]; 4 h after LPS, 15 mg/kg i.p.): 3160 (34.2) pg/mL
Pro-inflammatory Cytokine Level MIP-3α ([1]; 4 h after LPS, 15 mg/kg i.p.): 825 (46.9) pg/mL
Pro-inflammatory Cytokine Level TNFα ([1]; 4 h after LPS, 15 mg/kg i.p.): 3910 (349) pg/mL
Mean (SEM) Alveolar Neutrophil Infiltration Score ([1]; 24 h after LPS, 5 mg/kg i.p.): 1.50 (0.09)
Mean (SEM) Interstitial Neutrophil Infiltration Score ([1]; 24 h after LPS, 5 mg/kg i.p.): 1.55 (0.14)
Mean (SEM) Alveolar Neutrophil Infiltration Score ([1]; 24 h after LPS, 15 mg/kg i.p.): 1.60 (0.13)
Mean (SEM) Interstitial Neutrophil Infiltration Score ([1]; 24 h after LPS, 15 mg/kg i.p.): 1.23 (0.11)
Mean (SEM) Composite Lung Injury Score ([1]; 24 h after LPS, 5 mg/kg i.p.): 3.08 (0.17)
Mean (SEM) Composite Lung Injury Score ([1]; 24 h after LPS, 15 mg/kg i.p.): 2.93 (0.22)
pMEK1 (% of Positive Control) ([2]; 2.0 μM peptide): 8.7%
pMEK1 (% of Positive Control) ([2]; 10 μM peptide): 45.5%
pMEK1 (% of Positive Control) ([2]; 50 μM peptide): 79.4%
